According to ChEMBL document CHEMBL4507317, “Data for DCP probe BAY-899” (2021):

Experiments:
[1] = target: Serine/threonine-protein kinase ULK3 (Homo sapiens) (UniProt Q6PHR2); settings: Compound concentration 1000.0 nM
[2] = target: Insulin-like growth factor 1 receptor (Homo sapiens) (UniProt P08069); settings: Compound concentration 1000.0 nM
[3] = target: Cyclin-dependent kinase 4 (Homo sapiens) (UniProt P11802); settings: Compound concentration 1000.0 nM
[4] = target: Cyclin-dependent kinase-like 5 (Homo sapiens) (UniProt O76039); settings: Compound concentration 1000.0 nM
Cyclin-dependent kinase-like 5 (Homo sapiens), sequence (O76039 whole entry): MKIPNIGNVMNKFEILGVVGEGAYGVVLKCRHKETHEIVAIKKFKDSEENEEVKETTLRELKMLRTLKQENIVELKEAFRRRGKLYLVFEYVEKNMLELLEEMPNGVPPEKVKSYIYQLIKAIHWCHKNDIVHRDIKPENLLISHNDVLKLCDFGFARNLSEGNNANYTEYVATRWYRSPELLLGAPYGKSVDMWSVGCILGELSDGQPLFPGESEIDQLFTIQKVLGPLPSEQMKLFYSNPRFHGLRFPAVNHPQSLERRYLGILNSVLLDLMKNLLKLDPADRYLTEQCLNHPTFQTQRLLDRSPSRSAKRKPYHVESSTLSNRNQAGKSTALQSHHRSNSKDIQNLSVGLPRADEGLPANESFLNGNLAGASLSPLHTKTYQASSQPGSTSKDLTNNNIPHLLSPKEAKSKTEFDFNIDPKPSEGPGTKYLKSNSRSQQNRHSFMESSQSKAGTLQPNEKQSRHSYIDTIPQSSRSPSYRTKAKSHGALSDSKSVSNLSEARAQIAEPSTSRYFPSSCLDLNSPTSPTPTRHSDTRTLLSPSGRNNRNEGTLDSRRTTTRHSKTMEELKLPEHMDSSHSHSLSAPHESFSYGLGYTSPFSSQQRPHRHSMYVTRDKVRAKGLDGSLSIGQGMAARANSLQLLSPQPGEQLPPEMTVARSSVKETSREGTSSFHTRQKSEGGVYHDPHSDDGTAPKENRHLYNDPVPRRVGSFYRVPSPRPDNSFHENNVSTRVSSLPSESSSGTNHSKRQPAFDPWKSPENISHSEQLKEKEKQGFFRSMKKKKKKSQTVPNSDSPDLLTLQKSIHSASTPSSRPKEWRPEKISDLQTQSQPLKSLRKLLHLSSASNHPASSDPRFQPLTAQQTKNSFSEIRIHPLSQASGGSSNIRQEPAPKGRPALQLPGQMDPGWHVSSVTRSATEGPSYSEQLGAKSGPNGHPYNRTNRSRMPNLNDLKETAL

[5] = target: 5-hydroxytryptamine receptor 2C (Homo sapiens) (UniProt P28335); settings: Compound concentration 10.0 uM
5-hydroxytryptamine receptor 2C (Homo sapiens), sequence (P28335 whole entry): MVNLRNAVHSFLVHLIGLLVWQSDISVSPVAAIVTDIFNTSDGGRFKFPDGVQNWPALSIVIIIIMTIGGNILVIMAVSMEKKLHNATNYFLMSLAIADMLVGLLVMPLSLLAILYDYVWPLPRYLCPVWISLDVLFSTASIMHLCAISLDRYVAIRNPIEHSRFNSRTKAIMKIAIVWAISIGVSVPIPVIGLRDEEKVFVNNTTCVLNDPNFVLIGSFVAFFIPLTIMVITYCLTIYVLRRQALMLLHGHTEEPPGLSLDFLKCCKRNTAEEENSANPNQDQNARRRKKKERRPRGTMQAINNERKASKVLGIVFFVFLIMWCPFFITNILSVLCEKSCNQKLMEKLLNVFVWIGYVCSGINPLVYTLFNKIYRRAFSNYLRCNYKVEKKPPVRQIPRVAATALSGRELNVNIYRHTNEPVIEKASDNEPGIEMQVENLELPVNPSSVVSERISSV

[6] = target: Tyrosine-protein kinase ZAP-70 (Homo sapiens) (UniProt P43403); settings: Compound concentration 1000.0 nM
[7] = target: Serine/threonine-protein kinase Sgk1 (Homo sapiens) (UniProt O00141); settings: Compound concentration 1000.0 nM
[8] = target: Tyrosine-protein kinase HCK (Homo sapiens) (UniProt P08631); settings: Compound concentration 1000.0 nM
Tyrosine-protein kinase HCK (Homo sapiens), sequence (P08631 2-526 limits assumed): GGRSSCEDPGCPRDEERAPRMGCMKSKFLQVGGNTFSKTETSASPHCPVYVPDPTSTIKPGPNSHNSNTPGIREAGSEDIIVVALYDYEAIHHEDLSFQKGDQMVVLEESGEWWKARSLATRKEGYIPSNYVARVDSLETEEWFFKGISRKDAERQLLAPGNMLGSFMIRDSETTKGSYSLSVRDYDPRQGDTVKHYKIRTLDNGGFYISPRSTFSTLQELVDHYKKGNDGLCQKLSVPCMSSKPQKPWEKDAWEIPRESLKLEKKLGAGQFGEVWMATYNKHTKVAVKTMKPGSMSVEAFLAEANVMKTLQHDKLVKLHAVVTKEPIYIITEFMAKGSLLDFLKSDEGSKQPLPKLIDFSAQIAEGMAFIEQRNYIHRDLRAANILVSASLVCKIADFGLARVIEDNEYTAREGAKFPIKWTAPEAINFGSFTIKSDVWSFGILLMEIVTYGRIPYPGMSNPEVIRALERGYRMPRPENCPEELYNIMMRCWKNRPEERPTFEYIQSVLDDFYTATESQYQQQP

[9] = target: cGMP-dependent protein kinase 1 (Homo sapiens) (UniProt Q13976); settings: Compound concentration 1000.0 nM
[10] = target: Fibroblast growth factor receptor 2 (Homo sapiens) (UniProt P21802); settings: Compound concentration 1000.0 nM
[11] = target: Mast/stem cell growth factor receptor Kit (Homo sapiens) (UniProt P10721); settings: Compound concentration 1000.0 nM
[12] = target: Follicle-stimulating hormone receptor (Homo sapiens, UniProt P23945); assay: Cell-based assay (FSH Antagonism)
[13] = target: Interleukin-1 receptor-associated kinase 4 (Homo sapiens) (UniProt Q9NWZ3); settings: Compound concentration 1000.0 nM
[14] = target: Dual specificity protein kinase CLK2 (Homo sapiens) (UniProt P49760); settings: Compound concentration 1000.0 nM
[15] = target: Focal adhesion kinase 1 (Homo sapiens) (UniProt Q05397); settings: Compound concentration 1000.0 nM
[16] = target: Vascular endothelial growth factor receptor 2 (Homo sapiens) (UniProt P35968); settings: Compound concentration 1000.0 nM
[17] = target: Phosphorylase b kinase gamma catalytic chain, skeletal muscle/heart isoform (Homo sapiens) (UniProt Q16816); settings: Compound concentration 1000.0 nM
[18] = target: Casein kinase II subunit alpha' (Homo sapiens) (UniProt P19784); settings: Compound concentration 1000.0 nM
[19] = target: Serine/threonine-protein kinase Nek4 (Homo sapiens) (UniProt P51957); settings: Compound concentration 1000.0 nM
[20] = target: Transient receptor potential cation channel subfamily M member 6 (Homo sapiens) (UniProt Q9BX84); settings: Compound concentration 1000.0 nM
[21] = target: Mitogen-activated protein kinase kinase kinase 7 (Homo sapiens) (UniProt O43318); settings: Compound concentration 1000.0 nM
Mitogen-activated protein kinase kinase kinase 7 (Homo sapiens), sequence (O43318 whole entry): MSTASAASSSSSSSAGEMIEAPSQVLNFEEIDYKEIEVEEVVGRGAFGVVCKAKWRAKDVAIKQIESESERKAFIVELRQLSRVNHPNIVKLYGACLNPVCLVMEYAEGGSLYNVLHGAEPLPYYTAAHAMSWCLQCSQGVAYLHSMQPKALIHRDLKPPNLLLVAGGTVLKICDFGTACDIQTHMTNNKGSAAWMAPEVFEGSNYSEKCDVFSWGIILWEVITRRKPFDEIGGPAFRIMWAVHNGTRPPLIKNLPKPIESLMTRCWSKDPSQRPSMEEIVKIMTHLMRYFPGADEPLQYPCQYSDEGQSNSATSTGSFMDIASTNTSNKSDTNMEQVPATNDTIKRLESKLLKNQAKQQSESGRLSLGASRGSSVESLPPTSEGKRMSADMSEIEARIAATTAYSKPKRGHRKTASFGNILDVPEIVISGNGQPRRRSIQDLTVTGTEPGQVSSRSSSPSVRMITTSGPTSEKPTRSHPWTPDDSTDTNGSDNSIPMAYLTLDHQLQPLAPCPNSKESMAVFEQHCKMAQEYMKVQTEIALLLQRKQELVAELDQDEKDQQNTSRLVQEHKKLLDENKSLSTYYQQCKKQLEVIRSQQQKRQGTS

[22] = system: Epidermal growth factor receptor (Homo sapiens), P00533 [UNDEFINED MUTATION]; settings: Compound concentration 1000.0 nM
[23] = target: Tyrosine-protein kinase ITK/TSK (Homo sapiens) (UniProt Q08881); settings: Compound concentration 1000.0 nM
[24] = target: Ribosomal protein S6 kinase alpha-2 (Homo sapiens) (UniProt Q15349); settings: Compound concentration 1000.0 nM
[25] = target: Cyclin-dependent kinase 16 (Homo sapiens) (UniProt Q00536); settings: Compound concentration 1000.0 nM
[26] = target: Serine/threonine-protein kinase MARK2 (Homo sapiens) (UniProt Q7KZI7); settings: Compound concentration 1000.0 nM
[27] = target: Serine/threonine-protein kinase 16 (Homo sapiens) (UniProt O75716); settings: Compound concentration 1000.0 nM
Serine/threonine-protein kinase 16 (Homo sapiens), sequence (O75716 whole entry): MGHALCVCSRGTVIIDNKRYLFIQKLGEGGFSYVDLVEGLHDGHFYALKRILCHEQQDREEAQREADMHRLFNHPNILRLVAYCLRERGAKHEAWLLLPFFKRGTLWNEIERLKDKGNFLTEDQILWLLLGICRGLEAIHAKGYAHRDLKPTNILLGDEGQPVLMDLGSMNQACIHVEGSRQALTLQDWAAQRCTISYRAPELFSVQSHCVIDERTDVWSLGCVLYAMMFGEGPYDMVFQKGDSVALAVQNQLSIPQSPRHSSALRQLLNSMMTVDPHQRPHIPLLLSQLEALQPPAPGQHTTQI

[28] = target: Dual specificity mitogen-activated protein kinase kinase 7 (Homo sapiens) (UniProt O14733); settings: Compound concentration 1000.0 nM
[29] = system: Receptor-type tyrosine-protein kinase FLT3 (Homo sapiens), P36888 [R834Q]; settings: Compound concentration 1000.0 nM
[30] = target: Tyrosine-protein kinase Fes/Fps (Homo sapiens) (UniProt P07332); settings: Compound concentration 1000.0 nM
Tyrosine-protein kinase Fes/Fps (Homo sapiens), sequence (P07332 whole entry): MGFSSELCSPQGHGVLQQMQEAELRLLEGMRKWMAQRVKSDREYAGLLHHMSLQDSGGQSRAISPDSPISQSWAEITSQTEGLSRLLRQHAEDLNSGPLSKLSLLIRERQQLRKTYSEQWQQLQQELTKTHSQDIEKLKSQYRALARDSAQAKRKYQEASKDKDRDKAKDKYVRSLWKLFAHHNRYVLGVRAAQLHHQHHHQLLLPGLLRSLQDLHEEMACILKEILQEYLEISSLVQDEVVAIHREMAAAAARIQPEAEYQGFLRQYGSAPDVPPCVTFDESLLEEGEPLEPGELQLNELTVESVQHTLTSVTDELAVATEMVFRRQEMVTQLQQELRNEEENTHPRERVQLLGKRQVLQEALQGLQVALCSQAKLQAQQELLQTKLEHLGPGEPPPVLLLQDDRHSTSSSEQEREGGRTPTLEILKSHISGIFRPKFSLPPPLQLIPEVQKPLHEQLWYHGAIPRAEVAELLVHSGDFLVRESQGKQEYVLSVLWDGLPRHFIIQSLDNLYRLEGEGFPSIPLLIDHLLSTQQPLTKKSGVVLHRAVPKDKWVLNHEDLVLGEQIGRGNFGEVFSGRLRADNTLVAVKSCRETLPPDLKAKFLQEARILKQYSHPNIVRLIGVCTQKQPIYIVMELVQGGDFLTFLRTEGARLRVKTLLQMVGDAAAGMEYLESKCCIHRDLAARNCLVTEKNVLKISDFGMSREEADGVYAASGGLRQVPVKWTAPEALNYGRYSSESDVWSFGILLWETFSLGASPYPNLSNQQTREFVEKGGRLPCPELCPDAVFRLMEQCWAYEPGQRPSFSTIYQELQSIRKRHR

[31] = system: Epidermal growth factor receptor (Homo sapiens), P00533 [G719C]; settings: Compound concentration 1000.0 nM
[32] = target: Vascular endothelial growth factor receptor 1 (Homo sapiens) (UniProt P17948); settings: Compound concentration 1000.0 nM
[33] = target: Receptor-interacting serine/threonine-protein kinase 4 (Homo sapiens) (UniProt P57078); settings: Compound concentration 1000.0 nM
[34] = target: Inhibitor of nuclear factor kappa-B kinase subunit alpha (Homo sapiens) (UniProt O15111); settings: Compound concentration 1000.0 nM
[35] = target: Cyclin-dependent kinase 15 (Homo sapiens) (UniProt Q96Q40); settings: Compound concentration 1000.0 nM
[36] = target: Tyrosine-protein kinase receptor TYRO3 (Homo sapiens) (UniProt Q06418); settings: Compound concentration 1000.0 nM
[37] = target: Receptor tyrosine-protein kinase erbB-2 (Homo sapiens) (UniProt P04626); settings: Compound concentration 1000.0 nM
[38] = target: Sigma intracellular receptor 2 (Homo sapiens, UniProt Q5BJF2); settings: Compound concentration 10.0 uM
Sigma intracellular receptor 2, sequence (Q5BJF2 whole entry): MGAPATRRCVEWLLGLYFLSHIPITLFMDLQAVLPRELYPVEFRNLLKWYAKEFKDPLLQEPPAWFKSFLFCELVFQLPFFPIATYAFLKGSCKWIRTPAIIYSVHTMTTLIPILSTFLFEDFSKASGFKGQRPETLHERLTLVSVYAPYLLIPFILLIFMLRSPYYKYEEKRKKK

[39] = target: Vascular endothelial growth factor receptor 3 (Homo sapiens) (UniProt P35916); settings: Compound concentration 1000.0 nM
[40] = target: Activin receptor type-1 (Homo sapiens) (UniProt Q04771); settings: Compound concentration 1000.0 nM
[41] = target: D(3) dopamine receptor (Homo sapiens) (UniProt P35462); settings: Compound concentration 10.0 uM
[42] = target: Mitogen-activated protein kinase kinase kinase kinase 1 (Homo sapiens) (UniProt Q92918); settings: Compound concentration 1000.0 nM
[43] = target: Cyclin-dependent kinase 2 homolog (Plasmodium falciparum (isolate 3D7)) (UniProt P61075); settings: Compound concentration 1000.0 nM
[44] = target: Serine/threonine-protein kinase N1 (Homo sapiens) (UniProt Q16512); settings: Compound concentration 1000.0 nM
Serine/threonine-protein kinase N1 (Homo sapiens), sequence (Q16512 2-942 limits assumed): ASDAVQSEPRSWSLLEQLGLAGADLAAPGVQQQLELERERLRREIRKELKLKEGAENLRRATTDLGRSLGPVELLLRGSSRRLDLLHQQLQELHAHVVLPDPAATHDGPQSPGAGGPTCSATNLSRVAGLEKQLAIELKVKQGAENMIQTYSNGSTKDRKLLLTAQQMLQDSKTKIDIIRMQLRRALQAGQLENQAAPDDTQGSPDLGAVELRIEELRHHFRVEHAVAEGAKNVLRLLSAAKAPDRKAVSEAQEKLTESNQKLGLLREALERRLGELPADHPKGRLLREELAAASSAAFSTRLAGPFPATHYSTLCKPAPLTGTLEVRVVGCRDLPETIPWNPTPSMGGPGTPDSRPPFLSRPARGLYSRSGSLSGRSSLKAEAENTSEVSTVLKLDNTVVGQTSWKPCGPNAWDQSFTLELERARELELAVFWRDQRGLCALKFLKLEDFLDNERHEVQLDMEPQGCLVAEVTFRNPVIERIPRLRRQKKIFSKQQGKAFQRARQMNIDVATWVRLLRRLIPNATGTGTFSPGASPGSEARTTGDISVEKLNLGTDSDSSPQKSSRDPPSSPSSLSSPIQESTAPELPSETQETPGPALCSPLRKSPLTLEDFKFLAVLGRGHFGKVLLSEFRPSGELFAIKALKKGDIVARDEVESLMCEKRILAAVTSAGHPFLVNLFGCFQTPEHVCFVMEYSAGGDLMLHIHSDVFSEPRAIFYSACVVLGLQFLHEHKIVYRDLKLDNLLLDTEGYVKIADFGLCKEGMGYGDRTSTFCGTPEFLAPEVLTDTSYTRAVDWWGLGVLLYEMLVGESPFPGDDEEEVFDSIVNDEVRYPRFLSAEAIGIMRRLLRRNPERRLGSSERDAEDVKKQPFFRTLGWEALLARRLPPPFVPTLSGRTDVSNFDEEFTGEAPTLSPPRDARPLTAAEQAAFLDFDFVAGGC

[45] = target: Activated CDC42 kinase 1 (Homo sapiens) (UniProt Q07912); settings: Compound concentration 1000.0 nM

SMILES: O=C(Nc1ccc(Oc2ccc(F)cc2)cc1)N1CCc2ncccc2[C@H]1c1ccc(F)cc1 [BAY-897]
- residual activity [1]: 99%
- residual activity [2]: 100%
- residual activity [3]: 94%
- residual activity [4]: 100%
- inhibition [5]: 68.4%
- residual activity [6]: 91%
- residual activity [7]: 95%
- residual activity [8]: 100%
- residual activity [9]: 91%
- residual activity [10]: 93%
- residual activity [11]: 97%
- IC50 [12]: > 16 µM (not active)
- residual activity [13]: 96%
- residual activity [14]: 95%
- residual activity [15]: 100%
- residual activity [16]: 100%
- residual activity [17]: 100%
- residual activity [18]: 100%
- residual activity [19]: 94%
- residual activity [20]: 100%
- residual activity [21]: 89%
- residual activity [22]: 80%
- residual activity [23]: 96%
- residual activity [24]: 94%
- residual activity [25]: 65%
- residual activity [26]: 82%
- residual activity [27]: 100%
- residual activity [28]: 100%
- residual activity [29]: 97%
- residual activity [30]: 100%
- residual activity [31]: 73%
- residual activity [32]: 100%
- residual activity [33]: 84%
- residual activity [34]: 100%
- residual activity [35]: 86%
- residual activity [36]: 99%
- residual activity [37]: 100%
- inhibition [38]: 80.8%
- residual activity [39]: 96%
- residual activity [40]: 96%
- inhibition [41]: -2.66%
- residual activity [42]: 100%
- residual activity [43]: 87%
- residual activity [44]: 100%
- residual activity [45]: 99%

SMILES: O=C(Nc1cnc(Oc2ccc(F)cc2)nc1)N1CCc2ncccc2[C@@H]1c1ccc(F)cc1 [BAY-899]
- residual activity [1]: 95%
- residual activity [2]: 100%
- residual activity [3]: 100%
- residual activity [4]: 89%
- inhibition [5]: 18.3%
- residual activity [6]: 93%
- residual activity [7]: 75%
- residual activity [8]: 96%
- residual activity [9]: 89%
- residual activity [10]: 98%
- residual activity [11]: 100%
- IC50 [12]: > 16 µM (not active)
- residual activity [13]: 95%
- residual activity [14]: 100%
- residual activity [15]: 100%
- residual activity [16]: 88%
- residual activity [17]: 100%
- residual activity [18]: 100%
- residual activity [19]: 79%
- residual activity [20]: 100%
- residual activity [21]: 90%
- residual activity [22]: 70%
- residual activity [23]: 90%
- residual activity [24]: 79%
- residual activity [25]: 75%
- residual activity [26]: 90%
- residual activity [27]: 100%
- residual activity [28]: 95%
- residual activity [29]: 99%
- residual activity [30]: 100%
- residual activity [31]: 76%
- residual activity [32]: 88%
- residual activity [33]: 100%
- residual activity [34]: 100%
- residual activity [35]: 93%
- residual activity [36]: 100%
- residual activity [37]: 80%
- inhibition [38]: 53.2%
- residual activity [39]: 96%
- residual activity [40]: 97%
- inhibition [41]: -4.36%
- residual activity [42]: 100%
- residual activity [43]: 100%
- residual activity [44]: 95%
- residual activity [45]: 93%
